Literature values in patent US5986061A (priority 1995, dated 1999).

What was measured:
[1] = test system: vesicular stomatitis virus and bovine MDBK cells; conditions: literature (16, 28, 63); cited from earlier work
[2] = molecular target: T1, Hu-IFN-α/β receptor on bovine MDBK cells (Bos taurus, UniProt Q04790+Q95141); conditions: literature (16, 28, 63); cited from earlier work
T1 construct: endogenous in cells; host or cells: MDBK
T1 sequence (Q04790 25-560): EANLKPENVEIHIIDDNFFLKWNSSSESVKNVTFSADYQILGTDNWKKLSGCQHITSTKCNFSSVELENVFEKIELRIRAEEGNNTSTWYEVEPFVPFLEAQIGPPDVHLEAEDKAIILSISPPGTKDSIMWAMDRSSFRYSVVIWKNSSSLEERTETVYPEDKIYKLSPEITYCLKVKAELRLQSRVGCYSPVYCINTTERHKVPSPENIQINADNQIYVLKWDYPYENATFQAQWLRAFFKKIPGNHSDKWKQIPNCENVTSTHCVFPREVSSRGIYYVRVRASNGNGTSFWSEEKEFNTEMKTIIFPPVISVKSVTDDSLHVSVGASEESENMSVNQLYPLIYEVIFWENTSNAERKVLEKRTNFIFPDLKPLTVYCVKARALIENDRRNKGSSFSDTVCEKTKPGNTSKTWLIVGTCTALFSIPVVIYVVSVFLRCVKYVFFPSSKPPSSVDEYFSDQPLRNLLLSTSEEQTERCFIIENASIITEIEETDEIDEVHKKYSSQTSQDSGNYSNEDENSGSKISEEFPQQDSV
T1 sequence (Q95141 27-530): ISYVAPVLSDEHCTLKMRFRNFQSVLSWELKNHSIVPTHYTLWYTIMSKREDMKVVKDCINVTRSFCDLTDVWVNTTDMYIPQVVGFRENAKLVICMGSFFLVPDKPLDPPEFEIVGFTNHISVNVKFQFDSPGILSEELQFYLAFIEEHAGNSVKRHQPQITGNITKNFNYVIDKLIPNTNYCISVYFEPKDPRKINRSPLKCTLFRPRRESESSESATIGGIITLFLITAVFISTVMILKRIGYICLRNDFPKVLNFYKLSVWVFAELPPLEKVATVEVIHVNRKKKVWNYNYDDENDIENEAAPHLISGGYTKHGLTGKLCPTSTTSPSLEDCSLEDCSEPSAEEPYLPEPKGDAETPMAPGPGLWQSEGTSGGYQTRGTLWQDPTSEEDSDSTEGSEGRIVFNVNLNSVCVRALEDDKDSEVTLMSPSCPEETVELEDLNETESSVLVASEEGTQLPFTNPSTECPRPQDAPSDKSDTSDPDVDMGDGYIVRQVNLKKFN

Row | Molecule | antiviral activity on MDBK cell line [1] | binding to MDBK cell line [2]
1 | Hu-IFN-gamma: human immune (gamma) interferon | does not | 
2 | Hu-IFN-gamma: human immune (gamma) interferon (protein, UniProt P01579 24-161, looked up) Interferon gamma: QDPYVKEAENLKKYFNAGHSDVADNGTLFLGILKNWKEESDRKIMQSQIVSFYFKLFKNFKDDQSIQKSVETIKEDMNVKFFNSNKKKRDDFEKLTNYSVTDLNVQRKAIHELIQVMAELSPAAKTGKRKRSQMLFRG |  | does not
